Literature values as cited in patent US8648203B2 (priority 2005, dated 2014).

Tests used:
mites = settings: repeated treatments in the field
[1] = tested on: potato Phycophthora infestans; settings: field tests

In the case of O=[N+]([O-])c1cc(C(F)(F)F)c(Cl)c([N+](=O)[O-])c1Nc1ncc(C(F)(F)F)cc1Cl [fluazinam, 3-chloro-N-(3-chloro-5-trifluoromethyl-2-pyridyl)-α,α,α-trifluoro-2,6-dinitro-p-toluidine], the population of mites (mites) is given as “significantly reduce the population of mites” and the “activity against potato Phycophthora infestans” value [1] is given as “excellent activity”.
